The record followed here is patent publication US7067262B2, “Cell line for the expression of an α2δ2 calcium channel subunit and methods of use” (Warner Lambert Company LLC, priority 2000, dated 2006).

Experiment [1] deals with T1, human α2δ2 (hα2δ2) calcium channel subunit (Homo sapiens, UniProt Q9NY47).
T1 construct: covered the whole open reading frame of hα2δ2 cDNA; expressed in transfected cells
As to the kind of experiment: [3H]gabapentin radioligand binding to membranes from HEK293 stable cell line GKS07. Conditions: for affinity in competition with [3H]gabapentin binding, in words: hα2δ2. On the procedure: Cell culture and transfection. COS-7 and HEK293 cells were cultured in DMEM and RPMI 1640 media, respectively. The media were supplemented with 50 units/mL penicillin, 50 μg/mL streptomycin, and 10% heat-inactivated fetal bovine serum (FBS), in a humidified incubator with 95% air and 5% CO2 at 37° C. For transient transfection into COS-7 cells, 20 μg of plasmid DNA (vector or the same vector with α2δ insert) was incubated with 30 μL of lipofectamine. The mixture was overlaid onto the cells in 1.5 mL serum-free medium and incubated for 5 hours. Then FBS was added to the dishes to bring the final concentration to 10%. The medium was changed next morning. Forty-eight hours after the transfection, the cells were harvested for membrane preparation. For stable transfection of porcine α2δ1 and human α2δ2 into HEK 293 cells, the same procedure was applied as that for a transient transfection except for that 800 μg/mL G418 (gentacin) was added to the cells 48 hours after the transfection. […] The cell line has ATCC No. PTA-1823. In addition, hosts for expression of α2δ2 protein binding assays can also include eukaryotic expression systems such as yeast, insect cells, and mammalian cells (CHO, COS-7, HEK293, etc.).
(§1) Membrane preparation. Membranes were prepared from tissues or cultured cells. The cells were washed twice with cold PBS and then scraped off with cold buffer containing Tris (5 mM, pH 7.4), EDTA (5 mM), PMSF (0.1 mM), leupeptin (0.02 mM), and pepstatin (0.02 mM). The cells were incubated on ice for 30 minutes, followed by sonication for 30 to 40 seconds. For membrane preparations from tissues, the tissues were sliced into small pieces and subjected to sonication at interval of 10 seconds 4 times. The resulting homogenates from tissues or cultured cells were centrifuged for 10 minutes at 750 to 1000×g, and then the supernatants were centrifuged at 50,000×g for 30 minutes. The resulting pellets were resuspended in the same buffer as described above.
Binding assays. […] The membranes (100 μg of proteins for transiently transfected cells, 20 μg for GKS02 cell membranes, and 10 μg for GKS07 cell membranes) were incubated in 10 mM HEPES (N-[2-hydroxyethyl]piperazine-N′-[2-ethanesulfonic acid]) (pH 7.4) for 40 to 50 minutes at room temperature, and then filtered onto pre-wetted GF/C membranes and quickly washed five times with 3 mL of ice cold 50 mM Tris buffer (pH 7.4). The filters were dried and counted in a liquid scintillation counter. For determining nonspecific binding, the binding assays were performed in the presence of 10 μM pregabalin (Gee N. S., Brown J. P., Dissanayake V. U., Offord J.; Thurlow R., Woodruff G. N., J. Biol. Chem., 1996;271:5768–5776). The specific binding was obtained by subtracting nonspecific binding from the total binding. Clone #7 was identified as the highest α2δ2 subunit expressing clone. Binding assays can also be performed using recombinant and/or purified α2δ2 protein from human and other mammalian species, for screening α2δ2 subtype-selective inhibitors.

The target in experiment [2] is T2, porcine α2δ1 (pα2δ1) calcium channel subunit (Sus scrofa, UniProt A0A287BIN3).
T2 construct: expressed in transfected cells
As to the kind of experiment: [3H]gabapentin radioligand binding to membranes from HEK293 stable cell line GKS02. As to conditions: for affinity in competition with [3H]gabapentin binding, in words: pα2δ1. As for the experimental part: Cell culture and transfection. […] The media were supplemented with 50 units/mL penicillin, 50 μg/mL streptomycin, and 10% heat-inactivated fetal bovine serum (FBS), in a humidified incubator with 95% air and 5% CO2 at 37° C. For transient transfection into COS-7 cells, 20 μg of plasmid DNA (vector or the same vector with α2δ insert) was incubated with 30 μL of lipofectamine. The mixture was overlaid onto the cells in 1.5 mL serum-free medium and incubated for 5 hours. Then FBS was added to the dishes to bring the final concentration to 10%. The medium was changed next morning. Forty-eight hours after the transfection, the cells were harvested for membrane preparation. For stable transfection of porcine α2δ1 and human α2δ2 into HEK 293 cells, the same procedure was applied as that for a transient transfection except for that 800 μg/mL G418 (gentacin) was added to the cells 48 hours after the transfection. […] In addition, hosts for expression of α2δ2 protein binding assays can also include eukaryotic expression systems such as yeast, insect cells, and mammalian cells (CHO, COS-7, HEK293, etc.).
as §1
Binding assays. […] The membranes (100 μg of proteins for transiently transfected cells, 20 μg for GKS02 cell membranes, and 10 μg for GKS07 cell membranes) were incubated in 10 mM HEPES (N-[2-hydroxyethyl]piperazine-N′-[2-ethanesulfonic acid]) (pH 7.4) for 40 to 50 minutes at room temperature, and then filtered onto pre-wetted GF/C membranes and quickly washed five times with 3 mL of ice cold 50 mM Tris buffer (pH 7.4). The filters were dried and counted in a liquid scintillation counter. […] The specific binding was obtained by subtracting nonspecific binding from the total binding.

The structures appear in SMILES notation. Read-outs that look alike come from different tables or passages of the source.

T1 sequence (Q9NY47 19-1145 isoform Q9NY47-3 limits assumed): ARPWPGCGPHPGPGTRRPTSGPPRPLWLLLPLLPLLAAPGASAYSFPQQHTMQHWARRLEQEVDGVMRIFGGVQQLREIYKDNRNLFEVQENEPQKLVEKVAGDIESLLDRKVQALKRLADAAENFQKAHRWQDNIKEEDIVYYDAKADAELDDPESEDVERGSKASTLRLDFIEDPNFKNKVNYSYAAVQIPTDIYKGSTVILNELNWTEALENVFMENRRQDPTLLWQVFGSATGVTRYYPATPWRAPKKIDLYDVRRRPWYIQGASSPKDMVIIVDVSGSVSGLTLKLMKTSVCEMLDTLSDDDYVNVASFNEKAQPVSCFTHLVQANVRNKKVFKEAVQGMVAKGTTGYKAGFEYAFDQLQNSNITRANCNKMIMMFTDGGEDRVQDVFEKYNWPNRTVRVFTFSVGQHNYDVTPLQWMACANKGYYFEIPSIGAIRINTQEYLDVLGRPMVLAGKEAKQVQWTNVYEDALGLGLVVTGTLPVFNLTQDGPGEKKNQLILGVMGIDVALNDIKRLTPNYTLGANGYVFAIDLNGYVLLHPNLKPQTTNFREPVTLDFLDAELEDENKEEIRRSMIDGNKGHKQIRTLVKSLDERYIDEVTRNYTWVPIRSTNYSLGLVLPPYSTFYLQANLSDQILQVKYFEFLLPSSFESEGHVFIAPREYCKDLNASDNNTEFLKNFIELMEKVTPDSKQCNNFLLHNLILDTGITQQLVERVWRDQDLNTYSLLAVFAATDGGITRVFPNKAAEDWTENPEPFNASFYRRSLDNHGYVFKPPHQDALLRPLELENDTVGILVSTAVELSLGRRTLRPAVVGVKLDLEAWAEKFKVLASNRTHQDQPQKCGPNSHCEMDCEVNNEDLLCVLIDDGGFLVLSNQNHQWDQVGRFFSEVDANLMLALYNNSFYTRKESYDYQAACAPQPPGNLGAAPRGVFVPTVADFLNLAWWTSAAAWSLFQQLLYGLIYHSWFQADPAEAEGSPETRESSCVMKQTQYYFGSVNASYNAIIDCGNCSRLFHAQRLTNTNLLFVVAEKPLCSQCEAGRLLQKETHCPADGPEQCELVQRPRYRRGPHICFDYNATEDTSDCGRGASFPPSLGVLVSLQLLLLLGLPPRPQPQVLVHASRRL
T1 sequence (Q9NY47 1002-1150 partner limits assumed): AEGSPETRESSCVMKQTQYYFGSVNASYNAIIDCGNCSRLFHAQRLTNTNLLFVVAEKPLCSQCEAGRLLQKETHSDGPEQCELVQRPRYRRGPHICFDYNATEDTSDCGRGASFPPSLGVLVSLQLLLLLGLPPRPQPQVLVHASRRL
T2 sequence (A0A287BIN3 25-1109): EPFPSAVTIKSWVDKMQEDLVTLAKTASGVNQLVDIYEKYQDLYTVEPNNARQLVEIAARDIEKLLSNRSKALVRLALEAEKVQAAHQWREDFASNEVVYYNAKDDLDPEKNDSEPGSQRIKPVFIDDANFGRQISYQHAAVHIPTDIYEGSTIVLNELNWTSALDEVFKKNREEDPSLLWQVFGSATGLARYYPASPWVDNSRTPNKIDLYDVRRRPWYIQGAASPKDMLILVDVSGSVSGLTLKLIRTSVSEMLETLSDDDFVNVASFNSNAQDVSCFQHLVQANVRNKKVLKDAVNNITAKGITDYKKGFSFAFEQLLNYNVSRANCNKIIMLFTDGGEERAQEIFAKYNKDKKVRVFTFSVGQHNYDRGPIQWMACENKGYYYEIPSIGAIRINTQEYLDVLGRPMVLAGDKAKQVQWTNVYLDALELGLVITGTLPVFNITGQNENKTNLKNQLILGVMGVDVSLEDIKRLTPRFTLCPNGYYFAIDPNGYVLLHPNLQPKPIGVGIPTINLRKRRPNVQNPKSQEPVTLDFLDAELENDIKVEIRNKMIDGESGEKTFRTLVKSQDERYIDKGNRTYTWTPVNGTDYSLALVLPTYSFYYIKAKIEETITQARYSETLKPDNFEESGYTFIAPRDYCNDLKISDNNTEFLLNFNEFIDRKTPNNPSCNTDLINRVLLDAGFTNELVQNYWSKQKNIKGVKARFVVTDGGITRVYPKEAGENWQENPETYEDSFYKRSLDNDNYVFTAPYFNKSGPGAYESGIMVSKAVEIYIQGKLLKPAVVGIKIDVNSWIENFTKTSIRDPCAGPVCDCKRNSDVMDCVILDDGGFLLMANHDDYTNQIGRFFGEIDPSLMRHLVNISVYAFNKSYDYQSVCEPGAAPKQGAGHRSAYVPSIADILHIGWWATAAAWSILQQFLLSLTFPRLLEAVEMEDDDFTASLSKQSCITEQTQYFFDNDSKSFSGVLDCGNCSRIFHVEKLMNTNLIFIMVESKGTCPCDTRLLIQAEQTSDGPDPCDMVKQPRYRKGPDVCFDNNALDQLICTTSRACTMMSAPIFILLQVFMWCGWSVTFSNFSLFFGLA

Take `NC1(C(=O)O)CC2CCC1C2` (stereo not shown) [BCH]: the “affinity in competition with [3H]gabapentin binding, in words” value (“affinity in competition” for short) in experiment [1] and in experiment [2] was “weak” in each case. In addition, the IC50 turned out to be 775 nM in experiment [1] (read-out: IC50 Values for Inhibition of [3H]Gabapentin Binding, GKS07 (hα2δ2), membranes from HEK293 cell line GKS07, 20 nM [3H]gabapentin) and 1030 nM in experiment [2] (read-out: IC50 Values for Inhibition of [3H]Gabapentin Binding, GKS02 (pα2δ1), membranes from HEK293 cell line GKS02, 20 nM [3H]gabapentin).

As for `CC(C)C[C@@H](N)C(=O)O` [D-leucine], the IC50 amounted to 152000 nM in experiment [1] and 199000 nM in experiment [2].

`NCC1(CC(=O)O)CCCCC1` [Gabapentin, 1-(aminomethyl)cyclohexane acetic acid]: in experiment [1], the IC50 came to 282 nM.

For `CC(C)C[C@H](N)C(=O)O` [L-leucine], in experiment [1], the IC50 stood at 205 nM and the “affinity in competition” value is given as “markedly more potent than its D-enantiomer”. In experiment [2], the 50% inhibitory concentration (IC50) was 118 nM and the “affinity in competition” value is listed as “markedly more potent than its D-enantiomer”.

With `N[C@@H](Cc1ccccc1)C(=O)O` [L-phenylalanine], in experiment [1], the half-maximal inhibitory concentration (IC50) was determined as 2960 nM and the “affinity in competition” value is reported as “weak”. Also, the concentration for half-maximal inhibition (IC50) in experiment [2] amounted to 825 nM.

As for `CC(C)C[C@H](CN)CC(=O)O` [Pregabalin, (S+)-3-isobutyl GABA], the values for the IC50 in experiment [1] and in experiment [2] were 96 nM and 149 nM, respectively.
